Source: patent US20070141120A1, “Peptide having an ace inhibiting effect” (priority 2003, published 2007)
Peptide text beside a SMILES is read from it.

What was measured:
ACE [1] = assay: ACE-inhibition assay 2: modified Matsui assay; type: biochemical; conditions: substrate Hip-His-Leu, pH 8.3, 37° C., 30 min
Protocol: This ACE inhibition activity was assayed according to the method of Matsui et al. (Matsui, T. et al. (1992) Biosci. Biotech. Biochem. 56: 517-518) with the modifications described below.
For each sample 75 μl 3 mM hippuryl histidine leucine (Hip-His-Leu, Sigma chemicals Co.; the chemical was dissolved in 250 mM Borate containing 200 mM NaCl, pH 8.3); 20 μl 0.1 U/ml ACE (obtained at Sigma) or H2O, and 25 μl sample or H2O were mixed (see Table 1). The mixtures were incubated at 37° C. and stopped after 30 min by adding 125 μl 0.5 M HCl. Subsequently, 225 μl bicine/NaOH solution (1 M NaOH:0.25 M bicine (4:6)) was added, followed by 25 μl 0.1 M TNBS (2,4,6-Trinitrobenzenesulfonic acid, Fluka, Switzerland; in 0.1 M Na2HPO4). After incubation for 20 min. at 37° C., 4 ml 4 mM Na2SO3 in 0.2 M NaH2PO4 was added and the absorbance at 416 nm was measured with UV/Vis spectrophotometer (Shimadzu UV-1601 with a CPS controller, Netherlands).
The amount of ACE inhibition (ACEI) activity was calculated as a percentage of inhibition compared with the conversion rate of ACE in the absence of an inhibitor: ACEI (%)=(((C1−C2)−(S1−S2))/(C1−C2))*100 (1)
C1=Absorbance without ACE inhibitory component (=max. ACE activity) [AU].
C2=Absorbance without ACE inhibitory component and without ACE (background) [AU].
S1=Absorbance in the presence of ACE and the ACE inhibitory component [AU].
S2=Absorbance in the presence of the ACE inhibitory component, but without ACE [AU].

ACE [2] = biological target: ACE (Homo sapiens, UniProt P12821); assay: ACE-inhibition assay 1: enzyme based assay (EBA); type: biochemical; conditions: substrate Abz-FRK-(Dnp)P-OH, pH 7.0, fluorescence
Chain of ACE (Homo sapiens, UniProt P12821) (P12821 30-1306, species assumed): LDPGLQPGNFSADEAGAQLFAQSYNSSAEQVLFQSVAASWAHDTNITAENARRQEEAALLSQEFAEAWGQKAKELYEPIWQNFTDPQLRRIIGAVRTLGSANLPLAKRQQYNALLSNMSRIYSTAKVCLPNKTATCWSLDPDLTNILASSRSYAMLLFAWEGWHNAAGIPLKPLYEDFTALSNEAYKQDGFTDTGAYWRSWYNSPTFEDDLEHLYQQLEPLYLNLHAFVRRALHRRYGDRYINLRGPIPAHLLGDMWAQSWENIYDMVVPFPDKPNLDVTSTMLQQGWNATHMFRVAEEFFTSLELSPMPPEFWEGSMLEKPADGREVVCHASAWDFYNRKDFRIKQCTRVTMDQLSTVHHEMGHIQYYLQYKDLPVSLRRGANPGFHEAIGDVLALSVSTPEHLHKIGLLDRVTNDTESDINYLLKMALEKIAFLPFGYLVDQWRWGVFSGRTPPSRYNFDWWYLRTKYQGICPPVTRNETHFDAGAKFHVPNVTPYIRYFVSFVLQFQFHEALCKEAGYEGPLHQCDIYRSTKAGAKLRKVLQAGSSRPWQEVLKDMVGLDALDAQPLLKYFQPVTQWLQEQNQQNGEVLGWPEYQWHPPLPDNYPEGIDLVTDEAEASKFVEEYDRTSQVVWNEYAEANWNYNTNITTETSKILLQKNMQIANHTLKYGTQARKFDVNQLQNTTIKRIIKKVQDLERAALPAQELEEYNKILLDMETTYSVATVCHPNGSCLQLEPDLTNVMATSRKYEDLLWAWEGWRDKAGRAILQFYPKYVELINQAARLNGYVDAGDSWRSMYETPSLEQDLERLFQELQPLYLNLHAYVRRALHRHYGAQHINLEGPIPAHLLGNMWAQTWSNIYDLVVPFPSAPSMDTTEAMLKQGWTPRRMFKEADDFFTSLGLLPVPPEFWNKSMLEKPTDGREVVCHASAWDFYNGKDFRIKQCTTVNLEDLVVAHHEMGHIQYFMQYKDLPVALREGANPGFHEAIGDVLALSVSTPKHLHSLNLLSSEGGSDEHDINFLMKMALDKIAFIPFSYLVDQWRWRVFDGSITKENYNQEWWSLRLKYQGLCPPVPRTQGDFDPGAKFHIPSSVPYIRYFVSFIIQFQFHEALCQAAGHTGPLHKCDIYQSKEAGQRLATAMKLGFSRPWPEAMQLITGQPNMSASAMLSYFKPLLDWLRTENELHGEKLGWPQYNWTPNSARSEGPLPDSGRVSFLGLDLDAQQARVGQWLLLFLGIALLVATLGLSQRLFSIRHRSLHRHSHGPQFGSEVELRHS
Protocol: ACE and a synthetic substrate (Abz-FRK-(Dnp)P-OH) were used in the ACE-inhibition assay performed in white optiplate-96 microplates (Packard Bioscience). The substrate was a kind gift of Adriana K. Carmona (Dept. of Biophysics, Escola Paulista de Medivina, Universidae Federal de Sao Paulo, Brazil). Stock solutions of Abz-FRK-(Dnp)P-OH were prepared in DMSO. […] The assay buffer composition was 100 mM tris/HCl buffer pH 7.0 containing 100 mM NaCl. Forty μl sample solution in assay buffer was added to each well. In case of the controls only buffer was added. The samples were measured in threefold in a fluorophotometer (Fluostar, BMG labtechnologies). […] The ACE activity was measured for 10 cycles (about 10 minutes) by measuring the fluorescence at λex=320 nm and ξem=420 nm. The raw data was converted to the slope/sec and the ACE inhibition activity was calculated using the equation below. ACE inhibition (%)=[1−(Smean−Bmean)/(Cmean−Bmean)]*100
Bmean=average result of background (substrate)

Caco-2 cells = assay: Stability during exposure to Caco-2 cells (LC-MS); conditions: up to 360 min, peptide mixtures
Protocol: Caco-2 cells were obtained from American Type Culture Collection (ATCC) and used in experiments at passage 30-40. Cells were cultured in 75 cm^2 culture flasks (Corning Costar, Badhoevedorp, The Netherlands). The culture medium consisted of DMEM (high glucose, with L-glutamine) supplemented with 20% (v/v) foetal bovine serum, 1% (v/v) penicillin/streptomycin solution and 1% (v/v) NEAA. Cells were maintained at 37° C. in a humidified atmosphere of 5% CO2 in air. For stability experiments, cells were seeded on 12 well cell culture plates (Costar, Badhoevedorp, The Netherlands) and cultured for at least 21 days.
Cells were cultured in 12-well plates. Peptide mixtures were added to culture medium without foetal bovine serum, but containing 20% (v/v) solid phase extracted foetal bovine serum. […] For Caco-2 cells, 330 μl medium containing 0.1, 1 and 10 μg/ml peptide was added to each well of the culture plate. Three times 110 μl medium was collected at 0, 5, 10, 20, 30, 60, 90, 180 and 360 min of incubation. Experiments were performed in triplicate and all samples were directly placed on dry-ice and stored at −20° C. […] Wells without cells served as controls.
(§1) All measurements were carried out on a Waters Quattro-II or Quattro-Ultima triple quadrupole mass spectrometer. The LC separation was carried out at 25° C. on a Inertsil 5 ODS3 column, 150×2.1 mm, packed with 3 μm particles (Chompack) using 0-50% acetonitrile/0.1% (v/v) TFA. For analyses, 5 μl sample was injected onto the column. The flow rate through the column was 0.2 ml/min. The total flow after post-column makeup was 0.05 ml/min and contained a 7/3 (v/v) mixture of propionic acid and propanol-2. Gradient effluent was analysed using MRM mass spectrometry in positive-ESI mode. Capillary voltage was 4 kV. Source and nebulizer temperature were 100° C. and 250° C., repsectively. Drying and nebuliser gas flow were 300 l/h and 17 l/h, respectively. Collision gas was argon at a pressure of 7.9 e-4 mbar.

[3] = Stability during exposure to human serum (LC-MS); conditions: 37° C., up to 360 min, peptide mixtures
Protocol: Samples of 1.5 ml were collected in eppendorf vials at each of the time points. […] Samples were subsequently incubated for 5 min at 100° C. and then centrifugated in an IEC Micromax RF centrifuge (Boom BV Meppel) at 10.000 rpm for 20 minutes. The supernatant was collected in eppendorf vials and stored at −20° C. for further analysis. Experiments were performed in triplicate.
as §1

HUVEC cells = assay: Stability during exposure to HUVEC cells (LC-MS); conditions: up to 120 min, peptide mixtures
[4] = in sour milk, hypertensive humans, placebo-controlled; cited from earlier work
[5] = In vitro gastrointestinal digestion (GI conditions); conditions: simulated gastric fluid pH 3.5 60 min, then intestinal fluid pH 6.8 120 min, 37° C.
Protocol: The stability of peptides in the human gastrointestinal tract was studied by subjecting fermented or hydrolysed milk proteins to typical conditions in the stomach and small intestine. Gastric conditions were mimicked by dissolving 80 ml fermented or hydrolysed milk protein in 820 ml water contianing 2.0 g NaCl, 2.9 g pepsin and 0.45 g Amano Lipase F-AP15 from Rhizopus oryzae. The fluid was adjusted to pH 3.5 with HCl, stirred with a peddle (50 rpm) and kept at 37° C. for 60 min. […] The simulated intestinal fluid was stirred with a peddle (50 rpm) and kept at 37° C. for 120 min. Samples were collected at different time points during the in vitro gastrointestinal digestion. After collection, samples were directly heated at 95° C. for 30 min and subsequently stored at −20° C.

Structure (SMILES) | IC50 (ACE [1]) [µM] | IC50 (ACE [2]) [µM] | Stability, Caco-2 (Caco-2 cells) | Stability, Serum [3] | Stability, HUVEC (HUVEC cells) | Stability, GI conditions [5] | Blood pressure effect [4]
CC(C)C[C@H](NC(=O)[C@@H](NC(=O)[C@@H](N)CCCCN)C(C)C)C(=O)N1CCC[C@H]1C(=O)N[C@H](C(=O)N1CCC[C@H]1C(=O)O)C(C)C [KVLPVP] (H-KVLPVP-OH; N-terminus and C-terminus assumed) | 2 |  | − | − | − |  | 
CC[C@H](C)[C@H](NC(=O)[C@@H]1CCCN1)C(=O)N1CCC[C@H]1C(=O)O [PIP] (H-Pro-Ile-Pro-OH; N-terminus and C-terminus assumed) |  | > 50 | − | − | +/− |  | 
CC(C)[C@H](N)C(=O)N[C@@H](C)C(=O)N1CCC[C@H]1C(=O)O [VAP] (H-Val-Ala-Pro-OH; N-terminus and C-terminus assumed) | 1 | 4 | − | − | − |  | 
CC(C)[C@H](N)C(=O)N[C@@H](Cc1ccccc1)C(=O)O [VF] (H-Val-Phe-OH; N-terminus and C-terminus assumed) |  |  | +/− | +/− | − |  | 
CC(C)[C@H](N)C(=O)N1CCC[C@H]1C(=O)N1CCC[C@H]1C(=O)O [VPP] |  |  |  |  |  |  | blood pressure lowering effect

Continued, in another order:

IC50 (ACE [1]) [µM] | IC50 (ACE [2]) [µM] | Stability, Caco-2 (Caco-2 cells) | Stability, Serum [3] | Stability, HUVEC (HUVEC cells) | Stability, GI conditions [5] | Structure (SMILES) | Blood pressure effect [4]
4 | 5 |  |  |  |  | N[C@@H](CS)C(=O)N1CCC[C@H]1C(=O)N1CCC[C@H]1C(=O)O [CPP] (H-Cys-Pro-Pro-OH; N-terminus and C-terminus assumed) | 
10 | 20 | +/− | + | − |  | N[C@@H](Cc1ccccc1)C(=O)N[C@@H](Cc1ccc(O)cc1)C(=O)O [FY] (H-Phe-Tyr-OH; N-terminus and C-terminus assumed) | 
 |  | − | +/− | + | + | CC[C@H](C)[C@H](N)C(=O)N1CCC[C@H]1C(=O)N1CCC[C@H]1C(=O)O [IPP] | blood pressure lowering effect
 | > 50 |  |  |  |  | NCCCC[C@H](N)C(=O)N1CCC[C@H]1C(=O)N1CCC[C@H]1C(=O)O [KPP] (H-Lys-Pro-Pro-OH; N-terminus and C-terminus assumed) | 
7 | 10 | − | +/− | + |  | CSCC[C@H](N)C(=O)N1CCC[C@H]1C(=O)N1CCC[C@H]1C(=O)O [MPP] (H-Met-Pro-Pro-OH; N-terminus and C-terminus assumed) | 
 | > 50 | − | − | +/− |  | CC(C)C[C@H](NC(=O)[C@@H]1CCCN1)C(=O)N1CCC[C@H]1C(=O)O [PLP] (H-Pro-Leu-Pro-OH; N-terminus and C-terminus assumed) | 
15 | 35 | + | +/− | + |  | C[C@@H](O)[C@H](N)C(=O)N1CCC[C@H]1C(=O)N1CCC[C@H]1C(=O)O [TPP] (H-Thr-Pro-Pro-OH; N-terminus and C-terminus assumed) | 
